{"source": "patent US12157778B2", "about": "“Peptides for activation of cell signaling in osteoprogenitor cells” (The Regents of the University of California, priority 2018, dated 2024)", "key": {"[1]": {"assay": "Alendronate-conjugated peptides on bone metabolism in 2-month-old female mice", "assay_type": "in vivo", "conditions": "at the two doses used", "protocol": "FIGS. 15A-15C show two-month-old female mice treated with PBS control; YLL3-Aln or YLL8-Aln at 100 […], subcutaneously, once every two weeks for 2 doses; or YLL3-Aln or YLL8-Aln at 500 m/kg, one IV dose. Mice were euthanized at 28 days (n=4-5/group).\nTrabecular bone formation was measured in the distal femoral metaphysis. *, p<0.05 vs PBS. Arrows show double labeled bone surfaces.\nNext, the effects of alendronate-conjugated peptides on bone metabolism were evaluated. Two-month-old female mice were treated with PBS control, YLL3-Ale or YLL8-Ale at 100 μg/kg (25 nmol) or 300 μg/kg (75 nmol), subcutaneously, once every other week, or with one IV dose of 500 μg/kg. Two injections were given per mouse. The total cumulative doses were between 200 and 600 μg/kg/month (25-150 nmol), respectively. Alendronate concentration was approximately 1/10-⅕ of the compound. […] In contrast, YLL8-Ale at the 300 μg/kg×2 SC doses or 500 μg/kg×1 IV dose increased trabecular bone volume by more than 20% (p<0.05 vs. PBS) which was associated with increased trabecular thickness (30%, p<0.05 vs. PBS) (FIG. 15A and FIG. 15B) and number (28%, p<0.05 vs. PBS). Both 100 μg/kg and 300 μg/kg doses of YLL8-Ale increased cortical bone volume by approximately 16% and cortical thickness by approximately 15% (FIG. 15C)."}, "[2]": {"assay": "In vivo anabolic effects, 4-month-old mice, 5 μg/kg s.c. 5×/week for 21 days", "conditions": "for increase in femoral trabecular bone volume: vs PBS, YLL8 5 μg/kg, hPTH (1-34) 25 μg/kg", "protocol": "FIGS. 10A-10D show the effects of YLL8 on bone formation in vivo. […] All mice received Alizarin red and Calcein at −7 and −2 days before euthanization.\nFour-month-old female and male mice were treated with PBS control, YLL3 at 5 μg/kg, YLL8 at 5 μg/kg, or PTH at 25 μg/kg, sc., 5×/week for 28 days (n=4-6/group). Trabecular bone volume was obtained by micro CT scans at the distal femoral metaphysis. Osteocalcin and CTX-1 were measured at the serum.\nIn another similar study to determine whether YLLs would affect bone metabolism in vivo, YLL3 and YLL8 were injected into 4-month-old female and male mice at 5 μg/kg subcutaneously ([…]). hPTH (1-34) was injected s.c. at 25 μg/kg, 5×/week as a positive control. […] Both YLL8 and hPTH (1-34) increased femoral trabecular bone volume by approximately 130% in the female mice, compared to the PBS-treated mice. In the male mice, YLL8 increase femoral trabecular bone volume by approximately 70%, and hPTH (1-34) increased femoral trabecular bone volume by approximately 30% (FIG. 10A). Mineral apposition rate, a parameter corresponding to osteoblast activity, was increased by more than 70% in the females and about 30% in the males, resulting in an overall increase in surface-based bone formation rate (FIGS. 10A, 10B). The anabolic effect of YLLs was confirmed by increased trabecular bone mass measured at the distal femur metaphysis by micro CT and serum level of osteocalcin (FIG. 11)."}}, "data": [{"smiles": "Cc1ccccc1NC(=O)Nc1ccc(CC(=O)N[C@@H](CCCNC(N)=O)C(=O)N[C@@H](CCC(=O)O)C(=O)N[C@@H](CO)C(=O)N[C@H](C(=O)NCCOCCOCCNC(=O)CCC(=O)NCCOCCOCCNC(=O)CCC(=O)N[C@@H](CCCCNC(=O)[C@H](N)CSC2CC(=O)N(CC3CCC(C(=O)NCCCC(O)(P(=O)(O)O)P(=O)(O)O)CC3)C2=O)C(N)=O)C(C)C)cc1", "note": "(stereo partly shown) [YLL3-Ale]", "values": [{"measurement": "bone formation or bone mass compared to PBS control", "setting": "[1]", "result": "failed to achieve statistically significant differences"}]}, {"smiles": "Cc1ccccc1NC(=O)Nc1ccc(CC(=O)N[C@@H](CCCCNC(=O)CCc2cccnc2)C(=O)N[C@@H](CCCC(=O)O)C(=O)NC2(C(N)=O)CCCCC2)cc1", "note": "[YLL8]", "values": [{"measurement": "body weights and visible side-effects", "setting": "[2]; 5 μg/kg s.c., daily injection for 21 days", "result": "did not change body weights or cause any visible side-effects"}]}, {"smiles": "CC[C@H](C)[C@H](NC(=O)[C@H](CCC(=O)O)NC(=O)[C@H](CO)NC(=O)[C@@H](NC(=O)[C@@H](N)CO)C(C)C)C(=O)N[C@@H](CCC(N)=O)C(=O)N[C@@H](CC(C)C)C(=O)N[C@@H](CCSC)C(=O)N[C@@H](Cc1cnc[nH]1)C(=O)N[C@@H](CC(N)=O)C(=O)N[C@@H](CC(C)C)C(=O)NCC(=O)N[C@@H](CCCCN)C(=O)N[C@@H](Cc1cnc[nH]1)C(=O)N[C@@H](CC(C)C)C(=O)N[C@@H](CC(N)=O)C(=O)N[C@@H](CO)C(=O)N[C@@H](CCSC)C(=O)N[C@@H](CCC(=O)O)C(=O)N[C@@H](CCCN=C(N)N)C(=O)N[C@H](C(=O)N[C@@H](CCC(=O)O)C(=O)N[C@@H](Cc1c[nH]c2ccccc12)C(=O)N[C@@H](CC(C)C)C(=O)N[C@@H](CCCN=C(N)N)C(=O)N[C@@H](CCCCN)C(=O)N[C@@H](CCCCN)C(=O)N[C@@H](CC(C)C)C(=O)N[C@@H](CCC(N)=O)C(=O)N[C@@H](CC(=O)O)C(=O)N[C@H](C(=O)N[C@@H](Cc1cnc[nH]1)C(=O)N[C@@H](CC(N)=O)C(=O)N[C@@H](Cc1ccccc1)C(=O)O)C(C)C)C(C)C", "note": "[hPTH (1-34), Teriparatide]", "values": [{"measurement": "increase in femoral trabecular bone volume", "setting": "[2]; female mice", "result": "approximately 130%"}, {"measurement": "increase in femoral trabecular bone volume", "setting": "[2]; male mice", "result": "approximately 30%"}]}]}
